Consider seven molecules from publication PMC4805082, “Seizure control by decanoic acid through direct AMPA receptor inhibition” (Brain, 2015).

As a reminder, the IC50 is the concentration that gives 50% inhibition.

Series [1] concerns epileptiform activity (burst discharges) in hippocampal slices induced by pentylenetetrazol. Description: In vitro seizure model, pentylenetetrazol-induced epileptiform activity in hippocampal slices. The following applies: pentylenetetrazol 2 mM, K+ 6 mM. Format: cell-based, rat. Here is the method:
(§1) Male Sprague-Dawley rats (postnatal Days 19–30) were sacrificed using an overdose of isoflurane or pentobarbitone (500 mg/kg). After decapitation the brain was rapidly removed, the hippocampus or entorhinal cortex-hippocampus slices was dissected from the brain and […] thick transverse slices were prepared on a VT1200S vibratome (Leica) or Vibratome (Vibratome® 1500 sectioning system, Intracell). The slicing was performed in ice-cold sucrose-based solution containing (in mM): 75 sucrose, 87 NaCl, 22 glucose, 2.5 KCl, 7 MgCl2, 1.25 NaH2PO4, 0.5 CaCl2 and 25 NaHCO3, pH 7.4, 315–330 mOsm equilibrated with 95% O2 plus 5% CO2. The slices were then stored in a continuously oxygenated humidified interface holding chamber containing oxygenated artificial CSF (in mM): 120 NaCl, 22 glucose, 2.5 KCl, 1.3 MgSO4, 1 NaH2PO4, 25 NaHCO3 and 2.5 CaCl2, pH 7.4 296 mOsm, where they recovered for at least 1 h before use.
(§2) During the experiment, slices were transferred from the interface chamber into a submerged recording chamber, designed to optimize wash-in and wash-out of drugs, and continuously perfused using gravity feed at 3–6 ml/min with prewarmed (36°C) oxygenated artificial CSF (95% O2, 5% CO2). Field potentials were recorded with a glass microelectrode (1–2 MΩ) filled with artificial CSF solution placed in stratum radiatum of CA1 and were filtered at 1 kHz and digitized at 2 kHz (using an npi EXT-02F extracellular amplifier recorded with WinEDR software). In the pentylenetetrazol model, the epileptiform (paroxysmal) activity was induced by application of pentylenetetrazol (2 mM) to the perfusate and [K^+] was increased (to 6 mM); in low-Mg^2+ model, the epileptiform activity was elicited by using Mg^2+-free artificial CSF. Once the frequency of the paroxysmal activity was stable for at least 10 min, compounds were applied to the perfusate for the following 40 min, and washed out for a remaining 20 min. The anticonvulsant effects were evaluated by measuring the change in the frequency of the discharges at minute intervals. The discharge frequency was then averaged every 5 min during the experiment and normalized to baseline. The compounds applied in this study included: 1% dimethyl sulphoxide (DMSO), acetone (10 mM, Sigma), (±)-sodium 3-hydroxybutyrate (BHB) (10 mM, Sigma), and decanoic acid (1 mM, Alfa Aesar Pty). Acetone and decanoic acids were prepared as 1000× stocks in DMSO, and BHB was prepared as 100× stock. Stocks were dissolved in artificial CSF to achieve their final concentrations during experiments, and where applicable, experiments included constant levels of DMSO.

Series [2] deals with epileptiform activity (burst discharges) in hippocampal slices induced by low-Mg2+. Briefly: In vitro seizure model, low-Mg2+ induced epileptiform activity in hippocampal slices. The format is cell-based, rat. Conditions: 10 mM; low magnesium. Here is the method:
as §1
as §2, with “The discharge frequency was then averaged every 5 min during the experiment and normalized to baseline. The compounds applied in this study included: 1% dimethyl sulphoxide (DMSO), acetone (10 mM, Sigma), (±)-sodium 3-hydroxybutyrate (BHB) (10 mM, Sigma), and decanoic acid (1 mM, Alfa Aesar Pty). Acetone and decanoic acids were prepared as 1000× stocks in DMSO, and BHB was prepared as 100× stock. Stocks were dissolved in artificial CSF to achieve their final concentrations during experiments, and where applicable, experiments included constant levels of DMSO.” left out

Series [3] concerns the target T1, AMPA receptor GluA2/3 (Homo sapiens, UniProt P42262+P42263).
T1 construct: expressed in transfected cells; host or cells: Xenopus laevis oocytes injected with cRNA (1:1 mix)
Description: Two-electrode voltage clamp, AMPA receptor GluA2/3 expressed in Xenopus oocytes. Format: cell-based. Conditions: for AMPA receptor currents: compound 1 mM, currents elicited by 100 µM L-glutamate, −50 mV. As for the experimental part: The AMPA receptor (flip isoform) cDNAs inserted in a SP6 polymerase expression vector (pSP6T) were a generous gift from Prof. Ralf Schoepfer (NPP, UCL). […] AMPA receptor cRNAs were mixed in a nominal 1:1 ratio and ∼5 ng was injected per oocyte.
(§3) Xenopus laevis oocytes were purchased from the European Xenopus Resource Centre, University of Portsmouth. Stage V to VI oocytes were mechanically dissected and then subjected to gentle shaking for ∼30–50 min at room temperature with modified Barth’s solution (in mM): 88 NaCl, 1 KCl, 2.4 NaHCO3, 0.82 MgCl2, 0.77 CaCl2, 15 Tris-Cl, adjusted to pH 7.4 with NaOH (Sigma-Aldrich), supplemented with 50 IU/ml penicillin and 50 µg/ml streptomycin (Invitrogen) and 50 µg/ml tetracycline (Sigma-Aldrich) and 1% collagenase (type 1A). Healthy oocytes were manually defolliculated and the injections of cRNA for homomeric subunits alone (GluA1), or heteromeric mixtures of two subunits together (GluA1/GluA2 or GluA2/GluA3) were made using an automated Drummond Nanoinject II injector. The oocytes were then incubated at 17°C in modified Barth’s solution for at least 48 h before use in electrophysiological recordings.
Experiments were performed at room temperature (∼21–23°C). […] Current and voltage electrodes were filled with 300 mM KCl and made from thin-walled borosilicate glass (GC150TF-7.5, Harvard Apparatus) using a PC-10 electrode puller (Narashige Instruments) and had resistances of 0.5–2 MΩ. […] Compounds were dissolved in distilled water or DMSO and dissolved in bathing solution to achieve their final concentrations during experiments, and were applied under gravity flow during the experiment by using a multi-valve perfusion system (VC3-8C, ALA Scientific Instruments). The bath solutions were perfused at a rate of 10 ml/min. […] Data acquisition was performed using the Windows PC-based program, WinEDR v3.0.6 (John Dempster, University of Strathclyde, UK).
Statistical analysis was performed using ANOVA with Tukey post hoc test, paired t-test or unpaired t-test.

The test system of series [4] is AMPA receptor. The arrangement: method as in Arai, 2001. Conditions: 50 µM; ref Arai, 2001; cited from earlier work.
For series [5], the target named is T2, AMPA receptor GluA1 (Homo sapiens, UniProt P42261).
T2 construct: expressed in transfected cells; host or cells: Xenopus laevis oocytes injected with cRNA
Briefly: Two-electrode voltage clamp, homomeric GluA1 AMPA receptor expressed in Xenopus oocytes. Format: cell-based. The following applies: glutamate 100 µM. Here is the method: The AMPA receptor (flip isoform) cDNAs inserted in a SP6 polymerase expression vector (pSP6T) were a generous gift from Prof. Ralf Schoepfer (NPP, UCL). RNA was transcribed in vitro from MluI linearized transcripts using the SP6 Promega RiboMAX® RNA synthesis kit according to manufacturer’s protocols except for the addition of 0.75 mM capping nucleotide m^7G(5’)ppp(5’)G (Promega) and 1.6 mM GTP. cRNA concentrations and integrity were estimated by the intensity of fluorescence bands in RNA denaturating gels. AMPA receptor cRNAs were mixed in a nominal 1:1 ratio and ∼5 ng was injected per oocyte.
as §3
Experiments were performed at room temperature (∼21–23°C). An oocyte was placed in a recording chamber (0.3–0.5 ml volume) and perfused with ND96 solution (96 mM NaCl, 2 mM KCl, 1.8 mM CaCI2, 1 mM MgCl2, 5 mM HEPES, with pH adjusted to 7.5). Current and voltage electrodes were filled with 300 mM KCl and made from thin-walled borosilicate glass (GC150TF-7.5, Harvard Apparatus) using a PC-10 electrode puller (Narashige Instruments) and had resistances of 0.5–2 MΩ. Oocytes were voltage-clamped to a holding potential of −50 mV or −60 mV using a Turbo TEC-03 amplifier (npi electronics). […]
A general note: In two-electrode clamp one electrode senses voltage and the other passes current.

The conditions of series [6]: humans; ref Rogawski and Hanada, 2013; cited from earlier work.
Series [7] deals with field EPSP. The arrangement: method as in Ceolin et al., 2012. Conditions: at 30–50 nM; ref Ceolin et al., 2012; cited from earlier work.
Series [8] has as its system epileptiform activity (burst discharges) in hippocampal slices induced by low-Mg2+. The arrangement: method as in Chang et al., 2012, 2013. Conditions: 1 mM; ref Chang et al., 2012, 2013; cited from earlier work.
Series [9] has as its system epileptiform activity (burst discharges) in hippocampal slices induced by pentylenetetrazol. The arrangement: method as in Chang et al., 2012, 2013. Conditions: 1 mM; ref Chang et al., 2012, 2013; cited from earlier work.

T1 sequence (P42262 22-883 isoform P42262-2 limits assumed): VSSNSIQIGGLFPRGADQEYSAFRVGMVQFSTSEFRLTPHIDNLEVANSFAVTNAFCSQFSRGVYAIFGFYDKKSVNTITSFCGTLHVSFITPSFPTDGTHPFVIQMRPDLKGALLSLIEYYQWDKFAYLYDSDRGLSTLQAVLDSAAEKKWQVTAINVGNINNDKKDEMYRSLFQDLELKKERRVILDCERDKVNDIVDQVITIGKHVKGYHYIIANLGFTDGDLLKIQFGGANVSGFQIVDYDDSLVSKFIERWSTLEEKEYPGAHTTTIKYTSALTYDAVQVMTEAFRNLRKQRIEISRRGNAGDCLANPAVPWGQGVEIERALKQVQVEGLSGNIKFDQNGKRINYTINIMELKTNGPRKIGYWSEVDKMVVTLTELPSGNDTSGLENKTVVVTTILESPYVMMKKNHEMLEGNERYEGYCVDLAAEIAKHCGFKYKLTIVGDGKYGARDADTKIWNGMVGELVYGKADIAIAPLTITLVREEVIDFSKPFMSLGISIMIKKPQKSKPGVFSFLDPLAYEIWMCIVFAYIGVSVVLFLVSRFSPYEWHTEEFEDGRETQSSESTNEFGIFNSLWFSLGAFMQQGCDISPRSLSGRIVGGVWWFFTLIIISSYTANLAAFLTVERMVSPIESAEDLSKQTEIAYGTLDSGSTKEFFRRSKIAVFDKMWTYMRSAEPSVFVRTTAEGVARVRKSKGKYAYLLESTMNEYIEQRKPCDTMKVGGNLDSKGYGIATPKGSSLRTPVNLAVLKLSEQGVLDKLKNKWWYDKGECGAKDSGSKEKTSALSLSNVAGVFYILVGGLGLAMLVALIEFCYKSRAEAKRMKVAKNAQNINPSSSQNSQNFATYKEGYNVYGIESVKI
T1 sequence (P42263 29-894 isoform P42263-2 limits assumed): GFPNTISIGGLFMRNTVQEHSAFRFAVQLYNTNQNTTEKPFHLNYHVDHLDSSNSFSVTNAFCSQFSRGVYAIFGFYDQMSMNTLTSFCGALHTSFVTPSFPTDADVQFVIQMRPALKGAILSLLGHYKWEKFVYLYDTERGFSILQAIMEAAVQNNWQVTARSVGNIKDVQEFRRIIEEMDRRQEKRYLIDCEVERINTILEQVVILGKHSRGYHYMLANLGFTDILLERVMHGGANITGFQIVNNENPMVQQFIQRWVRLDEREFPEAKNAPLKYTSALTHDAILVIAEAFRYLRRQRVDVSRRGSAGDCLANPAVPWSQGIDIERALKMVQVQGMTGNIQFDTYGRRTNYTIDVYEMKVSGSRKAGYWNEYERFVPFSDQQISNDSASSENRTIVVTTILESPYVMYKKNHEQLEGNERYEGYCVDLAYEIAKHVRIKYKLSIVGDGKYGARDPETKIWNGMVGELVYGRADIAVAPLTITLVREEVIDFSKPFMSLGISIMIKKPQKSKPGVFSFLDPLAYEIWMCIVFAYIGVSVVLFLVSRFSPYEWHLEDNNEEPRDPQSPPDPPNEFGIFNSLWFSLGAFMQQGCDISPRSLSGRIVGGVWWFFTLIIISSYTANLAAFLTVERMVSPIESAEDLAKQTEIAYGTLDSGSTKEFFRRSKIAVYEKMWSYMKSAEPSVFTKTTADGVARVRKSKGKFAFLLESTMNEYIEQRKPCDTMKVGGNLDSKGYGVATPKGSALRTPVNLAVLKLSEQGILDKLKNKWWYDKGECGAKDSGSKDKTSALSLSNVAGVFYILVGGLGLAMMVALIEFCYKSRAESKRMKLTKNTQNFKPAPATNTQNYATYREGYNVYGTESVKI
T2 sequence (P42261 19-906 isoform P42261-2 limits assumed): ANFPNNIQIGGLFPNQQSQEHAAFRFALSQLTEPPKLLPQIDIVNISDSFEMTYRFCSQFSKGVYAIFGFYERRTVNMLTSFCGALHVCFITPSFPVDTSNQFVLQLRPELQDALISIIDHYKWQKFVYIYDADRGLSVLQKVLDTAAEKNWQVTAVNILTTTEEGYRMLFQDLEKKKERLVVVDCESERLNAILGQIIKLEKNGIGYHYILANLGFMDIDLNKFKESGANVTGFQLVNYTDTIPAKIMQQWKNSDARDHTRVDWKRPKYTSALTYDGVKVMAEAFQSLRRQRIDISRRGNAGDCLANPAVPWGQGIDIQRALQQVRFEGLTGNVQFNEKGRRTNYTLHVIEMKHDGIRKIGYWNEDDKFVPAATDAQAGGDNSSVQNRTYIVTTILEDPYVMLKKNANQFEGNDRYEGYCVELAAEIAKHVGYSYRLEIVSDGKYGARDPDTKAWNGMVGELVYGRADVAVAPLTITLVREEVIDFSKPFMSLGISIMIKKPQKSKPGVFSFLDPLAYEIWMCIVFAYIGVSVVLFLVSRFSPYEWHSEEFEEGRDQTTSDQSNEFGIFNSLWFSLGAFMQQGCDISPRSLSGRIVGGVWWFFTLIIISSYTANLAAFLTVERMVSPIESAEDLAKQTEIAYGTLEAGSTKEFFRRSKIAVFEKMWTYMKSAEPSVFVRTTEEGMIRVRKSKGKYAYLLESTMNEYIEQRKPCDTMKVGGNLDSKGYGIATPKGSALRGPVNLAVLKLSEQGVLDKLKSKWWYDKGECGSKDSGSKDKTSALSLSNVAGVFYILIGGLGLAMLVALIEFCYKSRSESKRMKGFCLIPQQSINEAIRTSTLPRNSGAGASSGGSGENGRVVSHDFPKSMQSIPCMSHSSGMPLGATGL

Take `CC(O)CC(=O)O` (racemic) [β-hydroxybutyrate, (±)-sodium 3-hydroxybutyrate]: the “effect on epileptiform activity” value in series [1] (10 mM) and in series [2] was “did not have any effect” throughout.

Regarding `CCCCC(C)CCC(=O)O` (stereo not drawn) [4-methyloctanoic acid], the IC50 in series [3] (glutamate 100 µM, read-out: IC50, inhibition of glutamate-induced AMPA receptor current) came out at 840 ± 40 µM.

In the case of `CC1=NN=C(c2ccc(N)cc2)c2cc3c(cc2C1)OCO3` [GYKI 52466, reference compound], in series [1] (50 µM), the “effect on epileptiform activity” value is recorded as “completely blocked”. Further, the “decrease in AMPA receptor responses” value in [4] is recorded as 60–70%.

`CC(C)=O` [acetone]: the “effect on epileptiform activity” value in series [1] (10 mM) and in series [2] was “did not have any effect” throughout.

For `CCCCCCCC(=O)O` [octanoic acid, reference compound], in [3], the AMPA receptor currents entry is reported as “no effect”. Moreover, in series [5], the “effect on homomeric GluA1 currents” value was “no effect”.

Regarding `N#Cc1ccccc1-c1cc(-c2ccccn2)cn(-c2ccccc2)c1=O` [perampanel], in [6], the “free concentrations observed to be efficacious” value was 30 to 50 nM. Also, the “reduction in field EPSP slope” value in [7] is on record as around 20%.

As to `CCCC(CCC)C(=O)O` [valproic acid], the AMPA receptor currents result in series [3] is on record as “no action”. Moreover, the “effect on seizure activity” value in [8] and in series [9] was “only modifies seizure activity” throughout. Moreover, in series [5], the “effect on homomeric GluA1 currents” value is “no effect”.
